Data set [1] deals with spleen. The data set is described as follows: CT imaging, spleen opacification and clearance. It counts as in vivo, white New Zealand rabbits. The method, then:
This sample was examined for imaging efficacy at the Center for Imaging and Pharmaceutical Research (CIPR) at the Massachusetts General Hospital in Charlestown, Mass. The sample was injected into white New Zealand rabbits at a dose of 3 ml/kg as a slow bolus injection. […], the opacification of the liver, spleen, and blood pool as measured in the aorta and within the left ventricle was determined by computed tomography (CT) using a Toshiba 900S Imager CT scanner and associated software.

Data set [2] deals with liver. The data set can be described thus: CT imaging, liver opacification and clearance. The class given is in vivo, white New Zealand rabbits. As for the experimental part:
(§1) This sample was examined for imaging efficacy at the Center for Imaging and Pharmaceutical Research (CIPR) at the Massachusetts General Hospital in Charlestown, Mass. The sample was injected into white New Zealand rabbits at a dose of 3 ml/kg as a slow bolus injection. At times of 5, 15, 30, 60 and 120 min. post injection, the opacification of the liver, spleen, and blood pool as measured in the aorta and within the left ventricle was determined by computed tomography (CT) using a Toshiba 900S Imager CT scanner and associated software.

Data set [3] can be described thus: Aqueous solubility relative to the butyrate ester. It counts as physicochemical.
A short description of data set [4]: Particle size after storage for 1 additional week at room temperature (shelf stability). The class given is physicochemical. Particulars: with both F108 and T908. The method, then: Compound 2 was added to each of 3×1.5 oz brown glass bottles containing approximately 12 ml of zirconium silicate (1.1 mm dia.) beads in an amount sufficient to be 15% (w/v) of the final suspension. Bottle A contained 3% (w/v) Pluronic F-68. Bottle B contained 3% (w/v) Pluronic F108. Bottle C contained 3% (w/v) Tetronic T-908. The resulting suspensions were milled on a roller mill at approximately 150 rpm for a total of 9 days. Estimates of particle size determined at various intervals were as detailed below: […]

Data set [5] in a line: Particle size after autoclaving at 121° C. for 20 min. (heat stability). It counts as physicochemical. The method, then:
Compound 2 was added to each of 3×1.5 oz brown glass bottles containing approximately 12 ml of zirconium silicate (1.1 mm dia.) beads in an amount sufficient to be 15% (w/v) of the final suspension. Bottle A contained 3% (w/v) Pluronic F-68. Bottle B contained 3% (w/v) Pluronic F108. Bottle C contained 3% (w/v) Tetronic T-908. The resulting suspensions were milled on a roller mill at approximately 150 rpm for a total of 9 days. Estimates of particle size determined at various intervals were as detailed below:
0.1% (w/v) DOSS was added to the F108 and T908 samples for autoclaving as cloud point modifiers.
(§2) Compound 2 was milled with zirconium silicate (1.1 mm dia) beads in the presence of Pluronic F-108 for 3 days. The final particle size was determined to be 235 nm. At this point, sterile PEG 400 was added to the suspension such that at completion, the formulation contained 15% (w/v) WIN 70146, 3% (w/v) Pluronic F-108, and 10% (w/v) PEG 400. This formulation was then autoclaved under standard conditions, i.e., 121° C. for 20 min., resulting in a final particle size of 248 nm.

A short description of data set [6]: Particle size after milling (light scattering). The class given is physicochemical. The method, then: 15% Compound 2 was milled with 4% Pluronic F-108 in the presence of zirconium silicate (1.1 mm dia) beads for 3 days under aseptic conditions. No additional salts or surfactants were added. The average particle size of the resulting nanoparticle suspension was 162 nm as determined by light scattering.
as §2

In data set [7] the test system is blood pool. The data set can be described thus: CT imaging, blood pool opacification and clearance. The class given is in vivo, white New Zealand rabbits. As for the experimental part: as §1
(§3) This formulation was evaluated at CIPR for both blood pool and lymphographic imaging in New Zealand White Rabbits using the above-described protocol (3 ml/kg) for blood pool imaging and 2 injections (0.25 ml) per paw for lymphography. […] Scanning was carried out using a Toshiba 900S Imager CT scanner and image density was calculated from iodinated standards imaged simultaneously with the animals.

Data set [8] deals with lymph. The data set can be described thus: Lymphographic imaging by CT. It counts as in vivo, New Zealand White Rabbits. Particulars: autoclaved Pluronic F-108/PEG 400 formulation; 2 injections (0.25 ml) per paw. The method, then:
as §3

Data set [9] can be described thus: Crystal forms / polymorphism on recrystallization. It counts as physicochemical. Particulars: e.g., when recrystallized from various solvents.
Where [10] appears, read: 15% Compound 2, 4% Pluronic F-108, 3 ml/kg slow bolus.
The mark [11] stands for this setting: 24 hours post injection, 3 ml/kg.

Structures are written as SMILES.

For `CCCCC(OC(=O)c1c(I)c(NC(C)=O)c(I)c(NC(C)=O)c1I)C(=O)OCC` (centres unmarked) [Compound 2, ethyl 2-(3,5-diacetamido-2,4,6-triiodobenzoyloxy)hexanoate], in data set [1] (setting [10]), the “Spleen opacification, duration” value is reported as 120 min and the “Spleen opacification, grade” value is “very good”. Besides, in data set [1] (setting [11]), the “Clearance from the spleen” value is “partial clearance”. Moreover, in [2] (setting [10]), the “Liver opacification, duration” value turned out to be 120 min and the “Liver opacification, grade” value is “very good”. Further, the “Clearance from the liver” value in data set [2] (setting [11]) was “partial clearance”. Also, the “Aqueous solubility, times lower than ethyl 2-(3,5-bis(acetylamino)-2,4,6-triiodobenzoyloxy)butyrate” value in [3] is listed as “about 40 times”. Further, the Shelf stability result in data set [4] is “excellent stability to heat autoclaving and shelf stability”. For the same compound, the “Final particle size after autoclaving” value in data set [5] (15% (w/v) compound, 3% (w/v) Pluronic F-108, 10% (w/v) PEG 400, 121° C. for 20 min.) is listed as 248 nm. Moreover, the “Stability to heat autoclaving” value in data set [5] (with both F108 and T908) is given as “excellent stability to heat autoclaving”. Besides, the Average particle size in [6] (15% Compound 2, 4% Pluronic F-108, milled 3 days, light scattering) stood at 162 nm. In data set [6] (Pluronic F-108, milled 3 days, before PEG 400 and autoclaving), the “Final particle size after milling” value was 235 nm. In data set [7] (setting [10]), the “Blood pool opacification, duration” value is more than 30 min and the “Blood pool opacification, grade” value was “excellent”. In addition, the “Clearance from the blood” value in data set [7] (setting [11]) is “complete clearance”. For the same compound, the “Blood pool opacification, duration” value in data set [7] (autoclaved Pluronic F-108/PEG 400 formulation, 3 ml/kg) is “at least 30 min”. Further, in data set [8], the “Lymphography level of opacification” value is “highest level of opacification noted to date in this indication” and the Lymphography performance entry was “excellent lymphography agent”.
Consider `CCOC(=O)C(CC)OC(=O)c1c(I)c(NC(C)=O)c(I)c(NC(C)=O)c1I` (centres unmarked) [ethyl 2-(3,5-bis(acetylamino)-2,4,6-triiodobenzoyloxy)butyrate, reference compound], for which the Stability during autoclaving result in data set [5] (nanoparticulate formulations, conventional heat sterilization) is “do not exhibit good stability during autoclaving”. Further, the Crystal forms entry in data set [9] was “exhibits multiple crystal forms, i.e., polymorphs”.

For the origin of these results see patent US5525328A, “Nanoparticulate diagnostic diatrizoxy ester X-ray contrast agents for blood pool and lymphatic system imaging” (NanoSystems L.L.C., priority 1994, dated 1996).
